Patent US11566057B2, “Long-acting co-agonists of the glucagon and GLP-1 receptors” (Merck Sharp & Dohme Corp., priority 2017, dated 2023)
pEC50: −log10 of the molar value. Where two headings read alike, the source gives them in different places. Numbered stars: 1 amine (or outer) side, 2 acyl side, 3 side chain; on linkers, the order of the positions; unused ones are H or OH. Square brackets hold non-standard residues; d marks the D form. Side chains are listed from the residue outwards. Peptide text beside a SMILES is read from it. * marks the point of attachment. Phe(4-CH2NH2) = NCc1ccc(C[C@H](N)C(=O)O)cc1; C18 diacid = O=C(O)CCCCCCCCCCCCCCCCC(=O)*; C16 diacid = O=C(O)CCCCCCCCCCCCCCC(=O)*; γGlu = O=C(O)[C@H](CCC(=O)[*:2])N[*:1]; Met(O2) = CS(=O)(=O)CC[C@H](N)C(=O)O; αMeD = C[C@](N)(CC(=O)O)C(=O)O; αMeS = C[C@](N)(CO)C(=O)O; AEEA = NCCOCCOCC(=O)O; Aib = CC(C)(N)C(=O)O

Legend:
[1] = target: T1, human GLP1R (Homo sapiens, UniProt P43220); assay: cAMP activity assay at the GLP-1 receptor (GLP1R); format: cell-based
T1 construct: expressed in transfected cells; growth medium holds Blasticidin and Hygromycin
T1 sequence (P43220 24-463): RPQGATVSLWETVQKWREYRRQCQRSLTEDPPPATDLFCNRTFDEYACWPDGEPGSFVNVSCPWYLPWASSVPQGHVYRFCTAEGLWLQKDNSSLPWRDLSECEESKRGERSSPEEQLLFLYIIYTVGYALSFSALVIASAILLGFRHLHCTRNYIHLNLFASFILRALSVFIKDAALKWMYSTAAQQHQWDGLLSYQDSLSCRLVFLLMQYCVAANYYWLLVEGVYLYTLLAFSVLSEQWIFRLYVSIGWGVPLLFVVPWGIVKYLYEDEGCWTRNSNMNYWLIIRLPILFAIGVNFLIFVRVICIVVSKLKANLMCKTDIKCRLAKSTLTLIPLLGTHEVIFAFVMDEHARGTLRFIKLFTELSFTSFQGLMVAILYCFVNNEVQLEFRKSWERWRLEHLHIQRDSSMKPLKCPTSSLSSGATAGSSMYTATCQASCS
How it was run: (§1)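 Peptides serially diluted from DMSO (10 points) and added to frozen-stock cells bearing human GLP1R (10,000 cells/well) or GCGR (30,000 cells/well), 1 h at RT, dark. EC50 by four-parameter logistic fit of HitHunter cAMPXS luminescence, read following overnight RT incubation.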

[2] = target: T2, human GCGR (Homo sapiens, UniProt P47871); assay: cAMP activity assay at the Glucagon receptor (GCGR); format: cell-based; details: for hGCGR/hGLP1R (hTone): ratio of GCGR EC50 to GLP1R EC50
T2 construct: expressed in transfected cells; growth medium holds Blasticidin and Hygromycin
T2 sequence (P47871 26-477): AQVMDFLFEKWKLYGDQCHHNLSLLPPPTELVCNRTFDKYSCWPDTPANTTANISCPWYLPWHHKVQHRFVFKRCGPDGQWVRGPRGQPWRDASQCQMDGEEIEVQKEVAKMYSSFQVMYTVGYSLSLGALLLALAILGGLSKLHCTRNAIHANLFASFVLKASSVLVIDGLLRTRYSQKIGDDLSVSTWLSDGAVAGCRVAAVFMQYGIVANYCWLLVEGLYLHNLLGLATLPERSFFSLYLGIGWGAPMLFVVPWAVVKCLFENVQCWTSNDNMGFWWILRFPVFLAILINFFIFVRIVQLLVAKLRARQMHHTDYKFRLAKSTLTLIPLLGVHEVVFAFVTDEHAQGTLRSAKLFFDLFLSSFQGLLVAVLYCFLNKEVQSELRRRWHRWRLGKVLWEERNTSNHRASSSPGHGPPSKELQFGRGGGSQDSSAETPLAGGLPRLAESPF
How it was run: as §1

[3] = summary statement: EC50 at each of the glucagon and GLP-1 receptors, read-out: EC50 at the GLP-1 receptor
[4] = cells expressing human GCGR, cAMP production, buffer with or without 20% human serum (not stated which), read-out: GCGR EC50 human
[5] = summary statement: EC50 at each of the glucagon and GLP-1 receptors, read-out: EC50 at the glucagon receptor
[6] = cells expressing human GLP1R, cAMP production, buffer with or without 20% human serum (not stated which), read-out: GLP1R EC50 human

| pEC50 [1, 3] | pEC50 [2, 4] | hGCGR/hGLP1R (hTone) [2] | pEC50 [2, 5] | pEC50 [1, 6] | Structure (SMILES) |
| --- | --- | --- | --- | --- | --- |
| > 8.30 | 9.44 | 0.1 | > 8.30 |  | CC(C)C[C@H](NC(=O)[C@H](Cc1ccc(O)cc1)NC(=O)[C@H](CCCCN)NC(=O)[C@H](CO)NC(=O)[C@H](Cc1ccc(O)cc1)NC(=O)[C@H](CC(=O)O)NC(=O)[C@H](CO)NC(=O)[C@@H](NC(=O)[C@H](Cc1ccccc1)NC(=O)[C@@H](NC(=O)CNC(=O)[C@H](CCC(N)=O)NC(=O)[C@](C)(CO)NC(=O)[C@@H](N)Cc1c[nH]cn1)[C@@H](C)O)[C@@H](C)O)C(=O)N[C@@H](CC(=O)O)C(=O)NC(C)(C)C(=O)N[C@@H](CCCNC(=N)N)C(=O)N[C@@H](C)C(=O)N[C@@H](C)C(=O)N[C@@H](CCCCNC(=O)COCCOCCNC(=O)COCCOCCNC(=O)CC[C@H](NC(=O)CCCCCCCCCCCCCCC(=O)O)C(=O)O)C(=O)N[C@@H](CC(=O)O)C(=O)N[C@@H](Cc1ccccc1)C(=O)N[C@H](C(=O)N[C@@H](CCC(N)=O)C(=O)N[C@@H](Cc1c[nH]c2ccccc12)C(=O)N[C@@H](CC(C)C)C(=O)N[C@@H](CCS(C)(=O)=O)C(=O)N[C@@](C)(CC(=O)O)C(=O)N[C@H](C(N)=O)[C@@H](C)O)C(C)C [TP618] (H-H[αMeS]QGTFTSDYSKYLD[Aib]RAAK([AEEA-AEEA-γGlu-C16 diacid])DFVQWL[Met(O2)][αMeD]T-NH2) |
| > 8.30 |  | 2.2 | > 8.30 | 9.15 | CC(C)C[C@H](NC(=O)[C@H](Cc1ccc(O)cc1)NC(=O)[C@H](CCCCN)NC(=O)[C@H](CO)NC(=O)[C@H](Cc1ccc(O)cc1)NC(=O)[C@H](CC(=O)O)NC(=O)[C@H](CO)NC(=O)[C@@H](NC(=O)[C@H](Cc1ccccc1)NC(=O)[C@@H](NC(=O)CNC(=O)[C@H](CCC(N)=O)NC(=O)C(C)(C)NC(=O)[C@@H](N)Cc1c[nH]cn1)[C@@H](C)O)[C@@H](C)O)C(=O)N[C@@H](CC(=O)O)C(=O)N[C@@H](C)C(=O)N[C@@H](CCCNC(=N)N)C(=O)N[C@@H](C)C(=O)N[C@@H](C)C(=O)N[C@@H](CCCCNC(=O)COCCOCCNC(=O)COCCOCCNC(=O)CC[C@H](NC(=O)CCCCCCCCCCCCCCCCC(=O)O)C(=O)O)C(=O)N[C@@H](CCC(=O)O)C(=O)N[C@@H](Cc1ccccc1)C(=O)N[C@H](C(=O)N[C@@H](CCC(N)=O)C(=O)N[C@@H](Cc1c[nH]c2ccccc12)C(=O)N[C@@H](CC(C)C)C(=O)N[C@@H](CCS(C)(=O)=O)C(=O)N[C@@](C)(CC(=O)O)C(=O)N[C@H](C(N)=O)[C@@H](C)O)C(C)C [TP713] (H-H[Aib]QGTFTSDYSKYLDARAAK([AEEA-AEEA-γGlu-C18 diacid])EFVQWL[Met(O2)][αMeD]T-NH2; N-terminus assumed) |
| > 8.30 |  | 1.9 | > 8.30 | 9.12 | CC(C)C[C@H](NC(=O)[C@H](Cc1ccc(O)cc1)NC(=O)[C@H](CCCCN)NC(=O)[C@H](CO)NC(=O)[C@H](Cc1ccc(O)cc1)NC(=O)[C@H](CC(=O)O)NC(=O)[C@H](CO)NC(=O)[C@@H](NC(=O)[C@H](Cc1ccccc1)NC(=O)[C@@H](NC(=O)CNC(=O)[C@H](CCC(N)=O)NC(=O)C(C)(C)NC(=O)[C@@H](N)Cc1c[nH]cn1)[C@@H](C)O)[C@@H](C)O)C(=O)N[C@@H](CC(=O)O)C(=O)N[C@@H](C)C(=O)N[C@@H](CCCNC(=N)N)C(=O)N[C@@H](C)C(=O)N[C@@H](C)C(=O)N[C@@H](CCCCNC(=O)COCCOCCNC(=O)COCCOCCNC(=O)COCCOCCNC(=O)CC[C@H](NC(=O)CCCCCCCCCCCCCCCCC(=O)O)C(=O)O)C(=O)N[C@@H](CC(=O)O)C(=O)N[C@@H](Cc1ccccc1)C(=O)N[C@H](C(=O)N[C@@H](CCC(N)=O)C(=O)N[C@@H](Cc1c[nH]c2ccccc12)C(=O)N[C@@H](CC(C)C)C(=O)N[C@@H](CCS(C)(=O)=O)C(=O)N[C@@](C)(CC(=O)O)C(=O)N[C@H](C(N)=O)[C@@H](C)O)C(C)C [TP677] (H-H[Aib]QGTFTSDYSKYLDARAAK([AEEA-AEEA-AEEA-γGlu-C18 diacid])DFVQWL[Met(O2)][αMeD]T-NH2; N-terminus assumed) |
| > 8.30 |  | 0.7 | > 8.30 | 9.74 | CC(C)C[C@H](NC(=O)[C@H](Cc1ccc(O)cc1)NC(=O)[C@H](CCCCN)NC(=O)[C@H](CO)NC(=O)[C@H](Cc1ccc(O)cc1)NC(=O)[C@H](CC(=O)O)NC(=O)[C@H](CO)NC(=O)[C@@H](NC(=O)[C@H](Cc1ccccc1)NC(=O)[C@@H](NC(=O)CNC(=O)[C@H](CCC(N)=O)NC(=O)C(C)(C)NC(=O)[C@@H](N)Cc1c[nH]cn1)[C@@H](C)O)[C@@H](C)O)C(=O)N[C@@H](CC(=O)O)C(=O)N[C@@H](C)C(=O)N[C@@H](CCCNC(=N)N)C(=O)N[C@@H](C)C(=O)N[C@@H](C)C(=O)N[C@@H](CCC(N)=O)C(=O)N[C@@H](Cc1ccc(CNC(=O)COCCOCCNC(=O)COCCOCCNC(=O)COCCOCCNC(=O)CC[C@H](NC(=O)CCCCCCCCCCCCCCCCC(=O)O)C(=O)O)cc1)C(=O)N[C@@H](Cc1ccccc1)C(=O)N[C@H](C(=O)N[C@@H](CCC(N)=O)C(=O)N[C@@H](Cc1c[nH]c2ccccc12)C(=O)N[C@@H](CC(C)C)C(=O)N[C@@H](CC(C)C)C(=O)N[C@@H](CC(=O)O)C(=O)N[C@H](C(N)=O)[C@@H](C)O)C(C)C [TP679] (H-H[Aib]QGTFTSDYSKYLDARAAQ[Phe(4-CH2NH2)]([AEEA-AEEA-AEEA-γGlu-C18 diacid])FVQWLLDT-NH2; N-terminus assumed) |
| > 8.30 | 9.68 | 1.6 | > 8.30 |  | CC(C)C[C@H](NC(=O)[C@H](Cc1ccc(O)cc1)NC(=O)[C@H](CCCCN)NC(=O)[C@H](CO)NC(=O)[C@H](Cc1ccc(O)cc1)NC(=O)[C@H](CC(=O)O)NC(=O)[C@H](CO)NC(=O)[C@@H](NC(=O)[C@H](Cc1ccccc1)NC(=O)[C@@H](NC(=O)CNC(=O)[C@H](CCC(N)=O)NC(=O)C(C)(C)NC(=O)[C@@H](N)Cc1c[nH]cn1)[C@@H](C)O)[C@@H](C)O)C(=O)N[C@@H](CC(=O)O)C(=O)N[C@@H](C)C(=O)N[C@@H](CCCNC(=N)N)C(=O)N[C@@H](C)C(=O)N[C@@H](C)C(=O)N[C@@H](CCC(N)=O)C(=O)N[C@@H](CCC(=O)O)C(=O)N[C@@H](Cc1ccccc1)C(=O)N[C@H](C(=O)N[C@@H](CCCCNC(=O)COCCOCCNC(=O)COCCOCCNC(=O)CC[C@H](NC(=O)CCCCCCCCCCCCCCC(=O)O)C(=O)O)C(=O)N[C@@H](Cc1c[nH]c2ccccc12)C(=O)N[C@@H](CC(C)C)C(=O)N[C@@H](CCS(C)(=O)=O)C(=O)N[C@@H](CC(=O)O)C(=O)N[C@H](C(N)=O)[C@@H](C)O)C(C)C [TP813] (H-H[Aib]QGTFTSDYSKYLDARAAQEFVK([AEEA-AEEA-γGlu-C16 diacid])WL[Met(O2)]DT-NH2; N-terminus assumed) |
